Measured values: ChEMBL document CHEMBL5291721, “A preclinical secondary pharmacology resource illuminates target-adverse drug reaction associations of marketed drugs” (Nat Commun, 2023)

How the values were obtained:
[1] = molecular target: Delta-type opioid receptor (Homo sapiens, UniProt P41143)
[2] = molecular target: T1, Cholecystokinin receptor type A (Homo sapiens, UniProt P32238)
T1 sequence (P32238 whole entry): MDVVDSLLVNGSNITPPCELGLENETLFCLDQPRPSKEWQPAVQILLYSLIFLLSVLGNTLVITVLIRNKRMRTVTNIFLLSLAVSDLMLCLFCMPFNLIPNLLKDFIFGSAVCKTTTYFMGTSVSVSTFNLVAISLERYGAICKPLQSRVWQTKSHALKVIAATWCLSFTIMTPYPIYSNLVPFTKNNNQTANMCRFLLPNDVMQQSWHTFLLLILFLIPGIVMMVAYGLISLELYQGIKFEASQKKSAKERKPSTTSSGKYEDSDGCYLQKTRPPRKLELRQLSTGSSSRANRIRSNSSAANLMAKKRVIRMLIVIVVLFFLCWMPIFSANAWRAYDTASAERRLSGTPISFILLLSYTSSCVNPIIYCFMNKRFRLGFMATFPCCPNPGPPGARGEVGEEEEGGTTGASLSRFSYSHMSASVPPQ

[3] = molecular target: Adenosine receptor A2a (Homo sapiens, UniProt P29274)
Adenosine receptor A2a, sequence (P29274 whole entry): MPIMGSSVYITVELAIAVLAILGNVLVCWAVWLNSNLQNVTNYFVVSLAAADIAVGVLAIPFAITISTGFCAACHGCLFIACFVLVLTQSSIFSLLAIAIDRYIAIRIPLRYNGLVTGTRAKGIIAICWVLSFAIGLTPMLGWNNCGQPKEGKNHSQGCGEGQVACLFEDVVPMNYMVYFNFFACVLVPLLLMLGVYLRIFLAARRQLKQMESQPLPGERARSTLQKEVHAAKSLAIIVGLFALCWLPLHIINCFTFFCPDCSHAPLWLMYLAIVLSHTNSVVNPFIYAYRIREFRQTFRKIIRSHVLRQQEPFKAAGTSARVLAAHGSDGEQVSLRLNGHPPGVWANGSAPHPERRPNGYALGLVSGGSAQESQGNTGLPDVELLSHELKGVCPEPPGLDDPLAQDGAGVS

[4] = molecular target: T2, Neuropeptide Y receptor type 1 (Homo sapiens, UniProt P25929); details: read-out: AC50
T2 sequence (P25929 whole entry): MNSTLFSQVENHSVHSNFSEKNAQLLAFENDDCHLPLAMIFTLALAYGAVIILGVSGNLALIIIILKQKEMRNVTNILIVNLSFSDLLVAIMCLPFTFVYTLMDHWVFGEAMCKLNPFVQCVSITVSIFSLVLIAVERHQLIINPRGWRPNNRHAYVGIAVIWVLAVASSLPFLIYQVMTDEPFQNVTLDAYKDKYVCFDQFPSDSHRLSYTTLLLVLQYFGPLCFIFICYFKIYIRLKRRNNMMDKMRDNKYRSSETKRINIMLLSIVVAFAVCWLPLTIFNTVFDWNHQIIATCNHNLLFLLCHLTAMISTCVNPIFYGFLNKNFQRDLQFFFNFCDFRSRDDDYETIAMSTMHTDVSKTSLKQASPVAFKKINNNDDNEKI

[5] = molecular target: T3, Muscarinic acetylcholine receptor M2 (Homo sapiens, UniProt P08172); assay type: functional, cell-based
T3 sequence (P08172 whole entry): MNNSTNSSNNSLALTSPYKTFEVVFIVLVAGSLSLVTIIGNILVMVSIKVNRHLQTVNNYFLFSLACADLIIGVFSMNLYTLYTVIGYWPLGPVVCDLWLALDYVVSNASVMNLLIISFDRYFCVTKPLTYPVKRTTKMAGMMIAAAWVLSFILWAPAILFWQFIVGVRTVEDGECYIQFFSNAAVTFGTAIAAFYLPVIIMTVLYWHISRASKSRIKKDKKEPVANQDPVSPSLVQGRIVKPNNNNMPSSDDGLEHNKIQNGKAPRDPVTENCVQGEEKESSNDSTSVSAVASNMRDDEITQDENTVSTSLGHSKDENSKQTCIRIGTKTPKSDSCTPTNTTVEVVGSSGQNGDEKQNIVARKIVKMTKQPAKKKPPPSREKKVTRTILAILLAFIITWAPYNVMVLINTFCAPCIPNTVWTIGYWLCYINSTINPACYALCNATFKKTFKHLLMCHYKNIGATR

[6] = molecular target: D(3) dopamine receptor (Homo sapiens, UniProt P35462)
D(3) dopamine receptor, sequence (P35462 whole entry): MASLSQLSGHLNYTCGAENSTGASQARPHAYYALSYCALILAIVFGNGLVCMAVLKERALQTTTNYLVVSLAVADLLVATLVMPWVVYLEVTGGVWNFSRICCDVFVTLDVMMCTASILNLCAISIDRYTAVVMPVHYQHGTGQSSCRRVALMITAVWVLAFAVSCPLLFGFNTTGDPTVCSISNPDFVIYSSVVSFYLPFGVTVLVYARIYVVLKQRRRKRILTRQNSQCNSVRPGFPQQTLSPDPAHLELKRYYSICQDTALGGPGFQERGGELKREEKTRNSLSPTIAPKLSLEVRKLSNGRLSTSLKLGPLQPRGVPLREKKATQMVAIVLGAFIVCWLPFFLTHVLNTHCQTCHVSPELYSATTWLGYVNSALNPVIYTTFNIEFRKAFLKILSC

[7] = molecular target: Beta-2 adrenergic receptor (Homo sapiens, UniProt P07550)
Beta-2 adrenergic receptor, sequence (P07550 whole entry): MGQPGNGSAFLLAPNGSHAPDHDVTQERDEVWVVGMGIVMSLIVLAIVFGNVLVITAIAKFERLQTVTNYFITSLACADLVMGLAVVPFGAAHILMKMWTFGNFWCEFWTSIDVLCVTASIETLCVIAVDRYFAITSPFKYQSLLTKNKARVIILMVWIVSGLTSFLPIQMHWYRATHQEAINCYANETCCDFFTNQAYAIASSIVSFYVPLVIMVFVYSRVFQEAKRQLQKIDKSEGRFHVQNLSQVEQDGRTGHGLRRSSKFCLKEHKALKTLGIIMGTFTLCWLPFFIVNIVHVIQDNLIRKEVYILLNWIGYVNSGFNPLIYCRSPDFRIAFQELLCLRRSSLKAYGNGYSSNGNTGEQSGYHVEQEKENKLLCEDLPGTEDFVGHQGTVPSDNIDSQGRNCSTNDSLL

[8] = molecular target: Beta-1 adrenergic receptor (Homo sapiens, UniProt P08588); assay type: functional
Beta-1 adrenergic receptor, sequence (P08588 whole entry): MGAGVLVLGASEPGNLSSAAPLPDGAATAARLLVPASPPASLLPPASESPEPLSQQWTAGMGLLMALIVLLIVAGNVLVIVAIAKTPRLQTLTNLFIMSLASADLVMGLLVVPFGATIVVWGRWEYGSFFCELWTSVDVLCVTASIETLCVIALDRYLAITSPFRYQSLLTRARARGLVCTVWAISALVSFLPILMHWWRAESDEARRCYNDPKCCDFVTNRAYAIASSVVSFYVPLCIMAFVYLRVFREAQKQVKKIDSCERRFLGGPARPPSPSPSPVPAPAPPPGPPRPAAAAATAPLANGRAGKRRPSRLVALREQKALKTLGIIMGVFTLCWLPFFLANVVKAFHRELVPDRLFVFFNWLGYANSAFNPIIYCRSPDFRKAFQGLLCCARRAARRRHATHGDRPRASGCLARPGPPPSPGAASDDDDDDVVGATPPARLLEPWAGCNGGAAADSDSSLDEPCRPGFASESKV

[9] = molecular target: T4, Progesterone receptor (Homo sapiens, UniProt P06401); assay type: functional
T4 sequence (P06401 whole entry): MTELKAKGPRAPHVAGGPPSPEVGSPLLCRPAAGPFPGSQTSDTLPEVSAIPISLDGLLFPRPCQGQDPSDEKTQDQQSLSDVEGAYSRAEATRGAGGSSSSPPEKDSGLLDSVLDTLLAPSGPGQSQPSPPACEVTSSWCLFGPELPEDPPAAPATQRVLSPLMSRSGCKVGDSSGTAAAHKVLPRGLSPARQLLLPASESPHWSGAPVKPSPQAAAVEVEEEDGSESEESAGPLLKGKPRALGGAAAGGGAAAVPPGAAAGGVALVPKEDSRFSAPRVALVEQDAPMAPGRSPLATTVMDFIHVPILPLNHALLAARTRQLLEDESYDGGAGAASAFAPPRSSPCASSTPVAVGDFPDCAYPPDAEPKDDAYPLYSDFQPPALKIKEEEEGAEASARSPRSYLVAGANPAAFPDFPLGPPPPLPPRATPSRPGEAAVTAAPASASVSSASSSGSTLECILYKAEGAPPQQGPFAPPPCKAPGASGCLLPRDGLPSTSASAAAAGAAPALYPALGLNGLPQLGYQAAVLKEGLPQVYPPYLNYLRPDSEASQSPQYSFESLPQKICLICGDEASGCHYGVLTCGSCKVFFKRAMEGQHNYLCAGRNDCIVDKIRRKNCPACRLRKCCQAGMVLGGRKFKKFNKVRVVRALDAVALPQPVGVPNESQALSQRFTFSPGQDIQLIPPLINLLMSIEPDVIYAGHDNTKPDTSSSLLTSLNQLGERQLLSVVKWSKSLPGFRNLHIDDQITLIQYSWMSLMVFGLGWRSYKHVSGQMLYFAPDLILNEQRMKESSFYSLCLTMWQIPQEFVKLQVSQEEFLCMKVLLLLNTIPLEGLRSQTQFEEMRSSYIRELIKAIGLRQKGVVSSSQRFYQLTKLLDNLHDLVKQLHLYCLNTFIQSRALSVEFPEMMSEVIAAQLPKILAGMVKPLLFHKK

[10] = molecular target: T5, Gastrin/cholecystokinin type B receptor (Homo sapiens, UniProt P32239)
T5 sequence (P32239 whole entry): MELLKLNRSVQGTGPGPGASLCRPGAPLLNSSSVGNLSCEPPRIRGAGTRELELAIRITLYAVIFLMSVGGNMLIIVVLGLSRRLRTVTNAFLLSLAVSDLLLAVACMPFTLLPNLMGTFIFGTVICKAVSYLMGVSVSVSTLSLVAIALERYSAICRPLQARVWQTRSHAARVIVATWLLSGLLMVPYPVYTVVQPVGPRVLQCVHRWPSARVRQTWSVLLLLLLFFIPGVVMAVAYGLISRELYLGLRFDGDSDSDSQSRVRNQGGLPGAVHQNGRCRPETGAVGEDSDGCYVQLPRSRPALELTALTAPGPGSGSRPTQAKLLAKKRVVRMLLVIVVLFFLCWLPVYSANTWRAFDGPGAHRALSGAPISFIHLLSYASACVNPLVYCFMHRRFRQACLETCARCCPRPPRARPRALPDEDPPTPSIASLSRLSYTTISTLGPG
Also: assay procedure not described here.

Delta-type opioid receptor, sequence (P41143 whole entry): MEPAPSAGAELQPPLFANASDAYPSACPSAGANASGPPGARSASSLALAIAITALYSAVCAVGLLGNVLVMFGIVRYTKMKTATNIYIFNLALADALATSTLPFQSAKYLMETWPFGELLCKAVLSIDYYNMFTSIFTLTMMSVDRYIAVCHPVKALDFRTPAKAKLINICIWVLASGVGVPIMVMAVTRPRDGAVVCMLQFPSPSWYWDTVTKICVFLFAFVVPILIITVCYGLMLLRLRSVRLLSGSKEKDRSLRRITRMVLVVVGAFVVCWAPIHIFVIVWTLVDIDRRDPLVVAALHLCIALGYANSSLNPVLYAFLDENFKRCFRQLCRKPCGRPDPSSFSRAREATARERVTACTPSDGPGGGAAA

Structure (SMILES) | AC50 [1] [µM] | AC50 [2] [µM] | AC50 [3] [µM] | AC50 [4] [µM] | AC50 [5] [µM] | AC50 [6] [µM] | AC50 [7] [µM] | AC50 [8] [µM] | AC50 [9] [µM] | AC50 [10] [µM]
CC(=O)SC[C@@H](C)C(=O)N1CCC[C@H]1C(=O)N[C@@H](Cc1ccccc1)C(=O)O | > 30 | > 30 | > 30 | > 30 | > 30 | > 30 | > 30 | > 30 | > 30 | > 30
CC1=C(C)C(=O)C(C(CCCCCC(=O)O)c2ccccc2)=C(C)C1=O (configuration not stated) [SERATRODAST] | > 30 | > 30 | > 30 | > 30 | > 30 | > 30 | > 30 | > 30 | > 30 | > 30
C=C1/C(=C\C=C2/CCC[C@]3(C)[C@@H]([C@H](C)/C=C/[C@@H](O)C4CC4)CC[C@@H]23)C[C@@H](O)C[C@@H]1O [CALCIPOTRIENE] | > 30 | > 30 | > 30 | > 30 | > 30 | > 30 | > 30 | > 30 | 20 | > 30
CCN(CC)C(=O)Nc1ccc(OCC(O)CNC(C)(C)C)c(C(C)=O)c1 (configuration not stated) [CELIPROLOL] | > 30 | > 30 | > 30 | > 30 | > 30 | > 30 | 4.6 | 0.076 | > 30 | > 30
O=C(O)CCNC(=O)c1ccccc1 [BETAMIPRON] | > 30 | > 30 | > 30 | > 30 | > 30 | > 30 | > 30 | > 30 | > 30 | > 30
O=C(O)c1ccccc1Nc1cc(Cl)ccc1C(=O)O [LOBENZARIT] | > 30 | > 30 | > 30 | > 30 | > 30 | > 30 | > 30 | > 30 | > 30 | > 10
C/C(=C\C(=O)OCCCCCCCCC(=O)O)C[C@@H]1OC[C@H](C[C@@H]2O[C@H]2[C@@H](C)[C@H](C)O)[C@@H](O)[C@H]1O [MUPIROCIN] | > 30 | > 10 | > 10 | > 10 | > 10 | > 30 | > 10 | > 10 | > 10 | –
C=C[C@@]1(C)CC(=O)[C@]2(O)[C@@]3(C)[C@@H](O)CCC(C)(C)[C@@H]3[C@H](O)[C@H](OC(C)=O)[C@@]2(C)O1 [COLFORSIN] | > 30 | > 30 | > 30 | > 30 | 11 | > 30 | > 30 | > 30 | > 30 | > 30
CCC(COC(=O)c1cc(OC)c(OC)c(OC)c1)(c1ccccc1)N(C)C (configuration not stated) [TRIMEBUTINE] | 4 | > 30 | > 30 | > 30 | 1.2 | > 30 | > 30 | > 30 | > 30 | > 30
CCCCCCCCCCCCCCCCCCCCCC(=O)Nc1ccn([C@@H]2O[C@H](CO)[C@@H](O)[C@@H]2O)c(=O)n1 [ENOCITABINE] | > 30 | > 30 | > 30 | > 30 | > 30 | > 30 | > 30 | > 30 | > 30 | > 30
COc1ccc(-c2noc(CC(=O)O)c2-c2ccc(OC)cc2)cc1 [MOFEZOLAC] | > 30 | > 30 | > 30 | > 30 | > 30 | > 30 | > 30 | > 30 | > 30 | > 10
NC1CCN(c2nc3c(cc2F)c(=O)c(C(=O)O)cn3-c2ccc(F)cc2F)C1 (configuration not stated) [TOSUFLOXACIN] | > 30 | > 30 | > 30 | > 30 | > 30 | > 30 | > 30 | > 30 | > 30 | > 30
C[N@+]1(CCF)[C@@H]2CC[C@H]1C[C@@H](OC(=O)C(O)(c1ccccc1)c1ccccc1)C2 | > 30 | > 30 | > 30 | > 30 | 0.0145 | > 30 | > 30 | > 30 | > 30 | > 30
O=C1CN=C(c2ccccn2)c2cc(Br)ccc2N1 [BROMAZEPAM] | > 30 | > 10 | > 10 | > 10 | > 10 | > 30 | > 10 | > 10 | > 10 | –
CC(=O)O[C@H](CC(=O)[O-])C[N+](C)(C)C [ACETYLCARNITINE] | > 30 | > 30 | > 30 | > 30 | > 30 | > 30 | > 30 | > 30 | > 30 | > 30
O=C1CN=C(c2ccccc2)c2cc([N+](=O)[O-])ccc2N1 [NITRAZEPAM] | > 30 | > 10 | > 10 | > 10 | > 10 | > 30 | > 10 | > 10 | > 10 | –
